Literature values as cited in patent US10301318B2, “Neuroactive compounds and methods of using the same” (THE GENERAL HOSPITAL CORPORATION, priority 2014, dated 2019).

System: mice
Conditions: literature

O=C(CCCN1CCC(O)(c2ccc(Cl)cc2)CC1)c1ccc(F)cc1 [haloperidol]
reversal of PCP-induced hyperlocomotion: can be reversed
